Assay results published in patent US6177475A, “Methods of using integrin modulators for treatment of inflammation” (priority 1997, dated 2001).

What was measured:
[1] = system: 51Cr-labeled monocytes; assay: Monocyte recruitment to inflamed joints in rat adjuvant arthritis; format: in vivo; details: 50 mg/kg i.v.; for Accumulation of 51Cr-labeled Monocytes (mean ± SEM): 2 h
Procedure: Rat adjuvant arthritis is characterized by integrin-mediated migration of ^51 Cr-labeled monocytes and ^111 In-labeled neutrophils into the inflamed synovium, which attains maximum between days 14 and 21 after the immunization. This model of human rheumatoid arthritis was used to assess in vivo effects of Ajoene on integrins that are known to be modulated by Ajoene in vitro.
Adjuvant arthritis was induced in 6-8 week old inbred male Lewis rats by immunization on the lower back with 0.5 mg Mycobacterium butyricum (Difco Laboratories, Inc., Detroit, Mich.) in 0.05 ml mineral oil in two sites subcutaneously at the base of the tail. All the animals developed polyarticular arthritis between days 11 and 13 after immunization. For clinical scoring, 0-4 points were assigned per limb and tail, based on the severity of erythema, swelling, and limitation of movement (the maximal possible score was 20).
Rat blood monocytes and neutrophils for migration studies were obtained by the hydroxyethyl starch (HES) exchange transfusion technique. The total blood volume of a donor rat was exchanged using 50 ml 6% HES solution in saline (DuPont Chemical Co., Dorval, Canada). After recovery of 40-45 ml blood/HES perfusate, the red cells were allowed to sediment (1 g) and the leukocyte-rich plasma was harvested. The leukocytes were recovered by centrifugation, resuspended in calcium-magnesium-free Tyrode's solution supplemented with 10% platelet-poor plasma (TS-PPP), and centrifuged in a discontinuous 63%/74% gradient of isotonic Percoll (Pharmacia Fine Chemicals, Dorval, Canada). The top layer, containing mononuclear cells (MN), and the cells in the 63%/74% interface, containing neutrophils, were collected, washed, and resuspended in TS-PPP. To obtain purified monocytes, the osmolality of the MN suspension was increased by adding 9% NaCl, and the suspension was centrifuged in a 40%/55%/58% Percoll gradient; monocytes were harvested at 40%/55% and […] interfaces, washed, and resuspended in TS-PPP.
Thereafter, monocytes (10^7 cells/ml) were labeled with 75 microCurie/ml of Na2^51 CrO4 (Amersham, Oakville, Canada) at 37° C. for 30 min. Neutrophils (10^7 cells/ml) were labeled with 1 microCurie/ml of ^111 In oxine (Amersham) for 10 min. Both populations were washed to remove excess labeled material and checked for viability and purity. The viability of either cell population used in the experiments was in excess of 95% (as double-checked by Trypan blue exclusion and neutral red staining). The separation procedure described above ordinarily produced populations that contained no less than 90% monocytes and no less than 95% neutrophils. […]

[2] = system: VLA-4 (Jurkat cells, VCAM-1); assay: VLA-4-dependent adhesion of Jurkat cells to VCAM-1; format: cell-based; details: Homo sapiens, 1 h, 37° C.
Procedure: (§1) Microtiter plates were coated with ligands of the integrin VLA-4, i.e., recombinant human VCAM-1 (500 nanograms per well) or the fragment of connective segment of human fibronectin (CS-1), covalently attached to ovalbumin (5 micrograms per well) by overnight incubation (4° C.) with solutions of the proteins in phosphate-buffered saline (PBS). The plates were blocked with 1% bovine serum albumin (BSA) in Hanks' buffered salt solution (HBSS-BSA). The cells (Jurkat or human melanoma MV3) were labeled with the fluorescent dye 5-chloromethylfluorescein diacetate (CMFDA) and introduced into the wells of the plates (10^5 cells per well) together with varying amounts of Ajoene. After incubation at 37° C. for 1 h, the unbound cells were removed by aspiration and the wells washed four times with HBSS-BSA. Thereafter, the bound cells were lysed with 0.5% Triton X-100, and the fluorescence was measured using a Cytofluor 2300 plate reader. The number of adherent cells was calculated from a standard dilution curve of Triton X-100 lysates of the CMFDA-labeled cells.

[3] = system: melanoma B16 cells; assay: Melanoma cell implantation (subcutaneous B16); format: in vivo, C57BL/6 mice; details: Mus musculus, sc; B16 cells pretreated 15 min; tumor volume at 14 and 21 days
Procedure: Male C57BL/6 mice were inoculated subcutaneously with 10^6 B16 cells (pretreated for 15 min with Ajoene) in their pretreatment medium, and the volume of the tumors formed was measured 14 and 21 days after the injection.

[4] = system: VLA-4 (MV3 cells, VCAM-1); assay: VLA-4-dependent adhesion of human melanoma MV3 cells to VCAM-1; format: cell-based; details: MV-3, 1 h, 37° C.
Procedure: as §1

[5] = system: HSV-2 strain G; assay: Herpes simplex virus infection of WI-38 fibroblasts (ELISA for HSV antigens); format: cell-based; details: Human alphaherpesvirus 2, WI-38, 24 hours
Procedure: The effect on herpes simplex virus (HSV) infection was assessed using human embryonic lung fibroblast line WI-38 and HSV-2 strain G (derived from a human with the genital infection). Semiconfluent fibroblast monolayers grown in 96-well culture plates (10^5 cells per well) were exposed to serial dilutions of Ajoene or vehicle control, followed immediately by addition of HSV-2 (5000 CCID50 per well). After 24 hours of culturing, the supernatants were examined by ELISA for the content of HSV antigens.

## C=CCSSC=CC[S+]([O-])CC=C (stereo not drawn) [Ajoene, 4,5,9-trithiadodeca-1,6,11-triene-9-oxide]
[1]
  inhibition of monocyte recruitment to the talar joints: ~ 50%
[1]; talar joint, P < 0.006 vs control
  Accumulation of 51Cr-labeled Monocytes (mean ± SEM): 25,078 cpm per sample
[1]; tarsal joint, N.S.
  Accumulation of 51Cr-labeled Monocytes (mean ± SEM): 10,365 cpm per sample
[1]; vertebral joints, P = 0.079
  Accumulation of 51Cr-labeled Monocytes (mean ± SEM): 2,737 cpm per sample
[2]
  IC50: 250 µM
[3]
  IC50: 2500 nM
[4]
  IC50: 125 µM
[5]
  IC50: 6 µM
[5]; read-out: concentration completely preventing HSV infection
  IC100: 17 µM
